Measurements published in ChEMBL document CHEMBL1177794, “Broad spectrum alkynyl inhibitors of T315I Bcr-Abl” (Bioorg Med Chem Lett, 2010).

What was measured:
[1] = target: Mitogen-activated protein kinase kinase kinase kinase 2 (Homo sapiens) (UniProt Q12851); test: Inhibition of MAP4K2 at 10 uM; conditions: values are per cent of control
[2] = target: Rhodopsin kinase GRK1 (Homo sapiens) (UniProt Q15835); test: Inhibition of GRK1 at 10 uM; conditions: values are per cent of control
[3] = test system: BaF3; test: Antiproliferative activity against mouse BAF3 cells; type: functional, cell-based
[4] = target: Ribosomal protein S6 kinase alpha-3 (Homo sapiens) (UniProt P51812); test: Inhibition of RSK2 N-terminal domain1 at 10 uM
[5] = test system: Receptor-type tyrosine-protein kinase FLT3 (Homo sapiens), P36888 [K663Q]; test: Inhibition of FLT3 K663Q mutant at 10 uM; conditions: values are per cent of control
[6] = target: ALK tyrosine kinase receptor (Homo sapiens) (UniProt Q9UM73); test: Inhibition of ALK at 10 uM; values are per cent of control
[7] = target: Serine/threonine-protein kinase PknB (Mycobacterium tuberculosis) (UniProt P9WI81); test: Inhibition of Mycobacterium tuberculosis PKNB at 10 uM
Sequence of Serine/threonine-protein kinase PknB (Mycobacterium tuberculosis) (P9WI81 whole entry): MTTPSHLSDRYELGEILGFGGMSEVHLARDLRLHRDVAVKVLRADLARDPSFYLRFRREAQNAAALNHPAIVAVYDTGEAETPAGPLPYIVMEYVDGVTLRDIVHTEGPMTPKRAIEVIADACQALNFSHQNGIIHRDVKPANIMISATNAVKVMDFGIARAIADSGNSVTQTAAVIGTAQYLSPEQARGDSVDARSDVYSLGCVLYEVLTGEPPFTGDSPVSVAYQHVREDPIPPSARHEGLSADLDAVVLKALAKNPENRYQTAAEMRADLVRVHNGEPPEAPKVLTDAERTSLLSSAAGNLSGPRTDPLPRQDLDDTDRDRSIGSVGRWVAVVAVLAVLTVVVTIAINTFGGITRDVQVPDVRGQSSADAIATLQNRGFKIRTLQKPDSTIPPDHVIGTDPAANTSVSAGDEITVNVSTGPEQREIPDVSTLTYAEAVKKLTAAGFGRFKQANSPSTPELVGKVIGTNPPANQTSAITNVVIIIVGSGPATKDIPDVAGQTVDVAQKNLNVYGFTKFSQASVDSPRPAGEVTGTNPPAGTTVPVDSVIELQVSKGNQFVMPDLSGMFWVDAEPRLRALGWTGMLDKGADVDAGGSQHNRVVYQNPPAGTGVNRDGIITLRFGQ

[8] = target: Inhibitor of nuclear factor kappa-B kinase subunit beta (Homo sapiens) (UniProt O14920); test: Inhibition of IKK-beta at 10 uM; conditions: values are per cent of control
Sequence of Inhibitor of nuclear factor kappa-B kinase subunit beta (Homo sapiens) (O14920 whole entry): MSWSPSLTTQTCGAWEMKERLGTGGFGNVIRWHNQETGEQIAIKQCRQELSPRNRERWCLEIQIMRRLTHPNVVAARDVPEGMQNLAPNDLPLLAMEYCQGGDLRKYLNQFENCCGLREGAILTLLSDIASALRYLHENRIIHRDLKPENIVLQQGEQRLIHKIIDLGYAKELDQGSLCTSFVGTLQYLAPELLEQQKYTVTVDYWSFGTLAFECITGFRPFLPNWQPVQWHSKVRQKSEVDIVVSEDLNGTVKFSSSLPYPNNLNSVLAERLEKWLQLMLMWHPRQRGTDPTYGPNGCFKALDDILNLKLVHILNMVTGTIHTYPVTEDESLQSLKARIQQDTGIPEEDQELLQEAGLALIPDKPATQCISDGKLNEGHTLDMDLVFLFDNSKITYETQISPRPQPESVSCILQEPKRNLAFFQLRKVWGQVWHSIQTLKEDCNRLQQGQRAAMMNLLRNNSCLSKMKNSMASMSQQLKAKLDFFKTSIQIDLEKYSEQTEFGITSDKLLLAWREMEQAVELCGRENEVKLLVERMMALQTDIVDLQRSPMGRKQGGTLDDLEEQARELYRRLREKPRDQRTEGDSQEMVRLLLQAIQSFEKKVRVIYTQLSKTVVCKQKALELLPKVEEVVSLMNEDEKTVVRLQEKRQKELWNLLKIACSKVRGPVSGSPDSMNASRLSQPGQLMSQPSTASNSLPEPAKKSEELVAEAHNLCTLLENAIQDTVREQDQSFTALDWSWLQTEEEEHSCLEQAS

[9] = target: Tyrosine-protein kinase receptor Tie-1 (Homo sapiens) (UniProt P35590); test: Inhibition of TIE1 at 10 uM
[10] = target: Peripheral plasma membrane protein CASK (Homo sapiens) (UniProt O14936); test: Inhibition of CASK at 10 uM; conditions: values are per cent of control
[11] = target: Activin receptor type-1B (Homo sapiens) (UniProt P36896); test: Inhibition of ACVR1B at 10 uM; conditions: values are per cent of control
[12] = target: BDNF/NT-3 growth factors receptor (Homo sapiens) (UniProt Q16620); test: Inhibition of TRKB at 10 uM; conditions: values are per cent of control
[13] = test system: Tyrosine-protein kinase ABL1 (Homo sapiens), P00519 [Q252H]; test: Inhibition of phosphorylated ABL1 Q252H mutant at 10 uM; conditions: values are per cent of control
[14] = target: Protein-tyrosine kinase 6 (Homo sapiens) (UniProt Q13882); test: Inhibition of BRK at 10 uM; conditions: values are per cent of control
[15] = target: Tyrosine-protein kinase Mer (Homo sapiens) (UniProt Q12866); test: Inhibition of MERTK at 10 uM; conditions: values are per cent of control
[16] = target: Serine/threonine-protein kinase TAO2 (Homo sapiens) (UniProt Q9UL54); test: Inhibition of TAOK2 at 10 uM
[17] = target: Mitogen-activated protein kinase 10 (Homo sapiens) (UniProt P53779); test: Inhibition of JNK3 at 10 uM; values are per cent of control
Sequence of Mitogen-activated protein kinase 10 (Homo sapiens) (P53779 whole entry): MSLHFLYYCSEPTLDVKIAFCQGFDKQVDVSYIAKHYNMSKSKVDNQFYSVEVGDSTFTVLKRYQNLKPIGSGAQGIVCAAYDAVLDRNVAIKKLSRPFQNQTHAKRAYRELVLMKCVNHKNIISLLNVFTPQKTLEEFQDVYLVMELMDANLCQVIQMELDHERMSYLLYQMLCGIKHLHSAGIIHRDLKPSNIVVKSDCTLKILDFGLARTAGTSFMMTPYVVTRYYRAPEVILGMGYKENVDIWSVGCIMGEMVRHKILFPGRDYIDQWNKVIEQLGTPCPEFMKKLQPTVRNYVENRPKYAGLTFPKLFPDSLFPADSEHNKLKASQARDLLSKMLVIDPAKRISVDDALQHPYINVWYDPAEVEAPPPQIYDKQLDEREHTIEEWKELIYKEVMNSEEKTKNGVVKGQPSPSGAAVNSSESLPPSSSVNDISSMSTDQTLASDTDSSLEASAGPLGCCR

[18] = target: SNF-related serine/threonine-protein kinase (Homo sapiens) (UniProt Q9NRH2); test: Inhibition of SNRK at 10 uM
[19] = target: Mitogen-activated protein kinase 4 (Homo sapiens) (UniProt P31152); test: Inhibition of ERK4 at 10 uM; conditions: values are per cent of control
[20] = target: Fibroblast growth factor receptor 4 (Homo sapiens) (UniProt P22455); test: Inhibition of FGFR4 at 10 uM; conditions: values are per cent of control
[21] = test system: Receptor-type tyrosine-protein kinase FLT3 (Homo sapiens), P36888 [D835Y]; test: Inhibition of FLT3 D835Y mutant at 10 uM; conditions: values are per cent of control
[22] = target: Insulin-like growth factor 1 receptor (Homo sapiens) (UniProt P08069); test: Inhibition of IGF1R at 10 uM; conditions: values are per cent of control
[23] = target: Serine/threonine-protein kinase 32B (Homo sapiens) (UniProt Q9NY57); test: Inhibition of YANK2 at 10 uM; conditions: values are per cent of control
[24] = target: Serine/threonine-protein kinase MRCK gamma (Homo sapiens) (UniProt Q6DT37); test: Inhibition of DMPK2 at 10 uM; conditions: values are per cent of control
[25] = target: Mitogen-activated protein kinase kinase kinase 11 (Homo sapiens) (UniProt Q16584); test: Inhibition of MLK3 at 10 uM
[26] = target: LIM domain kinase 2 (Homo sapiens) (UniProt P53671); test: Inhibition of LIMK2 at 10 uM; conditions: values are per cent of control
Sequence of LIM domain kinase 2 (Homo sapiens) (P53671 whole entry, looked up, the tested form may be a part): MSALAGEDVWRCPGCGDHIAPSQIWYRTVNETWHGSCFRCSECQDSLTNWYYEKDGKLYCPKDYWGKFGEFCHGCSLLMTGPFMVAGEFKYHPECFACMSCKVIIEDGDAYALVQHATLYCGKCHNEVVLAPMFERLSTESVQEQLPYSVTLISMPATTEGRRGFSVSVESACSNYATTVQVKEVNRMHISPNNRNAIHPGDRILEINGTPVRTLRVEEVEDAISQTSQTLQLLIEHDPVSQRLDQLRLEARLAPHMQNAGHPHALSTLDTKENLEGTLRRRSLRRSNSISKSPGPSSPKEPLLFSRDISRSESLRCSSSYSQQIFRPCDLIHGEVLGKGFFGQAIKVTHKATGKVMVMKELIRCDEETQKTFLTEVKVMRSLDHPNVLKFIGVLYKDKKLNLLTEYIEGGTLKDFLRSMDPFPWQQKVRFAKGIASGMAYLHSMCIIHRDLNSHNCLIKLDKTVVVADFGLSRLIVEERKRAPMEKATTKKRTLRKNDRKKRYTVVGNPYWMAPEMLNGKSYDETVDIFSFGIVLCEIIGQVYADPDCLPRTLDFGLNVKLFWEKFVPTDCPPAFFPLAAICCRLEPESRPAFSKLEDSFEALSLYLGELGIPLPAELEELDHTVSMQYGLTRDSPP

[27] = target: Serine/threonine-protein kinase Nek5 (Homo sapiens) (UniProt Q6P3R8); test: Inhibition of NEK5 at 10 uM
[28] = target: Serine/threonine-protein kinase PLK2 (Homo sapiens) (UniProt Q9NYY3); test: Inhibition of PLK2 at 10 uM; conditions: values are per cent of control
[29] = target: Leucine-rich repeat serine/threonine-protein kinase 2 (Homo sapiens) (UniProt Q5S007); test: Inhibition of LRRK2 at 10 uM; conditions: values are per cent of control
[30] = test system: Phosphatidylinositol 4,5-bisphosphate 3-kinase catalytic subunit alpha isoform (Homo sapiens), P42336 [E542K]; test: Inhibition of PIK3CA E542K mutant at 10 uM
[31] = target: Ephrin type-A receptor 1 (Homo sapiens) (UniProt P21709); test: Inhibition of EPHA1 at 10 uM; conditions: values are per cent of control
[32] = target: Mitogen-activated protein kinase kinase kinase 7 (Homo sapiens) (UniProt O43318); test: Inhibition of TAK1 at 10 uM; values are per cent of control
[33] = target: Mitogen-activated protein kinase kinase kinase kinase 1 (Homo sapiens) (UniProt Q92918); test: Inhibition of HPK1 at 10 uM; conditions: values are per cent of control
[34] = target: RAF proto-oncogene serine/threonine-protein kinase (Homo sapiens) (UniProt P04049); test: Inhibition of RAF1 at 10 uM; conditions: values are per cent of control
[35] = target: Insulin receptor-related protein (Homo sapiens) (UniProt P14616); test: Inhibition of INSRR at 10 uM; conditions: values are per cent of control
[36] = target: Serine/threonine-protein kinase Nek9 (Homo sapiens) (UniProt Q8TD19); test: Inhibition of NEK9 at 10 uM
[37] = target: Phosphatidylinositol 4,5-bisphosphate 3-kinase catalytic subunit delta isoform (Homo sapiens) (UniProt O00329); test: Inhibition of PIK3CD at 10 uM
Sequence of Phosphatidylinositol 4,5-bisphosphate 3-kinase catalytic subunit delta isoform (Homo sapiens) (O00329 whole entry, canonical isoform): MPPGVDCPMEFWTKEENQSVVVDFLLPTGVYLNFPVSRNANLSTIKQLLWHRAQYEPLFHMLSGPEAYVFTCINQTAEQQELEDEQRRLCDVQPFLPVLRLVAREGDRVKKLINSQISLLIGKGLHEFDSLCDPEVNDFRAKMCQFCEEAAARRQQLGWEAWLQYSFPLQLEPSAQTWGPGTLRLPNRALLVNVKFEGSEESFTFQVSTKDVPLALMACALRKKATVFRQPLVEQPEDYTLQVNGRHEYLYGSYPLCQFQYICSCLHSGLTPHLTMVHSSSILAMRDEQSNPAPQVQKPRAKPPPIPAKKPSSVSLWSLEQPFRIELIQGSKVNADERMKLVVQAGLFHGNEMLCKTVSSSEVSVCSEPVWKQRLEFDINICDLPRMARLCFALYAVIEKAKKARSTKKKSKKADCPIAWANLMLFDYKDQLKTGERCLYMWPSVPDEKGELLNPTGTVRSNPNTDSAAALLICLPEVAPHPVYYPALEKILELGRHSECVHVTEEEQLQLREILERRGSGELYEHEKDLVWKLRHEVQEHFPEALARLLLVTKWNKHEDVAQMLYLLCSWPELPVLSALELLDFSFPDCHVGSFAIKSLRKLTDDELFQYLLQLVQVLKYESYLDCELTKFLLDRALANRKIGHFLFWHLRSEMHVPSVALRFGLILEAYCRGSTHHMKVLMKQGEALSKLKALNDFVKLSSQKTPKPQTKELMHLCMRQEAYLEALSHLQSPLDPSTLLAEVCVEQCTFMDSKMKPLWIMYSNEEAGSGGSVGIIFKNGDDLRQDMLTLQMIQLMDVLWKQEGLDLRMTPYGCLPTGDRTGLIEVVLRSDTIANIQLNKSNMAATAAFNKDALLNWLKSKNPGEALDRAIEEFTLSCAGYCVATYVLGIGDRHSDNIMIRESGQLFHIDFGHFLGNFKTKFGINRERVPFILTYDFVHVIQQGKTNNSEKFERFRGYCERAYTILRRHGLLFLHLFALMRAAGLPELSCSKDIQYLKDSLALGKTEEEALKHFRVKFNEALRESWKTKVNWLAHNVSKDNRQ

[38] = target: Serine/threonine-protein kinase STK11 (Homo sapiens) (UniProt Q15831); test: Inhibition of LKB1 at 10 uM; conditions: values are per cent of control
Sequence of Serine/threonine-protein kinase STK11 (Homo sapiens) (Q15831 whole entry): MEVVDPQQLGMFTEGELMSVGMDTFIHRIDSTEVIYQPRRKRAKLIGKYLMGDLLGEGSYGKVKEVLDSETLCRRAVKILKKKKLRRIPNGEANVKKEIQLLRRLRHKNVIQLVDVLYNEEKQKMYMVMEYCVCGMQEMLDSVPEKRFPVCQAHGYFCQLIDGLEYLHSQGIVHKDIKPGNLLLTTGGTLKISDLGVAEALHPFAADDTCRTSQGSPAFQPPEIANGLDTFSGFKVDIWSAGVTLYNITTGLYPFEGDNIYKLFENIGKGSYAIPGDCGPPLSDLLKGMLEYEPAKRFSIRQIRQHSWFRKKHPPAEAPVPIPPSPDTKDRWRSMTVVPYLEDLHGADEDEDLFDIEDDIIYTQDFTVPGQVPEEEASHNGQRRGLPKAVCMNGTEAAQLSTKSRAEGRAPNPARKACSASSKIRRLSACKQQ

[39] = target: BMP-2-inducible protein kinase (Homo sapiens) (UniProt Q9NSY1); test: Inhibition of BIKE at 10 uM; conditions: values are per cent of control
[40] = test system: Epidermal growth factor receptor (Homo sapiens), P00533 [T790M]; test: Inhibition of EGFR T790M mutant at 10 uM; values are per cent of control
[41] = target: cGMP-dependent protein kinase 2 (Homo sapiens) (UniProt Q13237); test: Inhibition of PRKG2 at 10 uM
[42] = target: Protein-tyrosine kinase 2-beta (Homo sapiens) (UniProt Q14289); test: Inhibition of PYK2 at 10 uM; conditions: values are per cent of control
[43] = target: Serine/threonine-protein kinase NLK (Homo sapiens) (UniProt Q9UBE8); test: Inhibition of NLK at 10 uM
[44] = target: Ephrin type-A receptor 6 (Homo sapiens) (UniProt Q9UF33); test: Inhibition of EPHA6 at 10 uM; conditions: values are per cent of control
Sequence of Ephrin type-A receptor 6 (Homo sapiens) (Q9UF33 whole entry): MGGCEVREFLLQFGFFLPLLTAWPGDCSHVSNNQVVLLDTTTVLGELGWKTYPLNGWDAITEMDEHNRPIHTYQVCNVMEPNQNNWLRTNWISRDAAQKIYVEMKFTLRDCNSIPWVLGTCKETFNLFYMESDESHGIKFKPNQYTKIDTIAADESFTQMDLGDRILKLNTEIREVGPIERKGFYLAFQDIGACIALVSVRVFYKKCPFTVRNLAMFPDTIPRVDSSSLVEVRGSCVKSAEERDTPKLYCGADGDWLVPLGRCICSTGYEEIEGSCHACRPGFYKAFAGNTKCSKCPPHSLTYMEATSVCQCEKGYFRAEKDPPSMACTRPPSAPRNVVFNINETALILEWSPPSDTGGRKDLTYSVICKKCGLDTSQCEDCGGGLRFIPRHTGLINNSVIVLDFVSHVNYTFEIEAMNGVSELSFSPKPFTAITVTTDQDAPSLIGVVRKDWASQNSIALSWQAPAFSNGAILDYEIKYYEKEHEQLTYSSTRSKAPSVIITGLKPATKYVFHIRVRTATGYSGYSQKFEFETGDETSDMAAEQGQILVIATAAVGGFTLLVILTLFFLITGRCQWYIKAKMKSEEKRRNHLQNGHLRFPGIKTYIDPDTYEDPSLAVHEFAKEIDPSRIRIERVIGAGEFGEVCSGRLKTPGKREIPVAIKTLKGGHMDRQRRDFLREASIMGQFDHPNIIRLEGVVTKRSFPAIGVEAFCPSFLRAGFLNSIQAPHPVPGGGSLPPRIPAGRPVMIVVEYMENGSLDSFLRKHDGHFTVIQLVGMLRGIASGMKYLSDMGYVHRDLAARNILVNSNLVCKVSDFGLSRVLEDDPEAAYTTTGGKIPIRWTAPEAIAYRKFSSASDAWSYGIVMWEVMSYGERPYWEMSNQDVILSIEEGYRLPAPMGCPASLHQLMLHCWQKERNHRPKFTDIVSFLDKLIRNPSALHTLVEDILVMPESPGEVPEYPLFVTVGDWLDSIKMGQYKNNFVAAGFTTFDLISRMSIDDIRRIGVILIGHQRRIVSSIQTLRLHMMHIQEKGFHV

[45] = target: Dual specificity mitogen-activated protein kinase kinase 6 (Homo sapiens) (UniProt P52564); test: Inhibition of MEK6 at 10 uM; conditions: values are per cent of control

`CCN1CCN(Cc2ccc(NC(=O)c3ccc(C)c(C#Cc4cnc5[nH]ccc5c4)c3)cc2C(F)(F)F)CC1` was tested, and the residual binding, % of control [1] was 0%, the residual binding, % of control [2] was 88% and the EC50 [3] was 1 µM. For the same molecule, the inhibition [4] was 2.8%, the residual binding, % of control [5] was 0% and the level, % of control [6] was 52%. It also gave an inhibition [7] of 98%, a residual binding, % of control [8] of 0.1% and an inhibition [9] of 1.1%. For the same molecule, the residual binding, % of control [10] was 100%, the residual binding, % of control [11] was 63% and the residual binding, % of control [12] was 2%. The residual binding, % of control [13] was 0.2%, the residual binding, % of control [14] was 2.5% and the residual binding, % of control [15] was 0.5%. For the same molecule, the inhibition [16] was 0%, the level, % of control [17] was 1.8% and the inhibition [18] was 60%. It also gave a residual binding, % of control [19] of 26%, a residual binding, % of control [20] of 0% and a residual binding, % of control [21] of 0.85%. For the same molecule, the residual binding, % of control [22] was 95%, the residual binding, % of control [23] was 100% and the residual binding, % of control [24] was 35%. The inhibition [25] was 3%, the residual binding, % of control [26] was 0.35% and the inhibition [27] was 0.65%. It also gave a residual binding, % of control [28] of 100%, a residual binding, % of control [29] of 6.2% and an inhibition [30] of 96%. The residual binding, % of control [31] was 0.6%, the % of control [32] was 0.25% and the residual binding, % of control [33] was 0.05%. For the same molecule, the residual binding, % of control [34] was 0.95%, the residual binding, % of control [35] was 68% and the inhibition [36] was 12%. It also gave an inhibition [37] of 76%, a residual binding, % of control [38] of 60% and a residual binding, % of control [39] of 30%. It also gave a level, % of control [40] of 13%, an inhibition [41] of 77% and a residual binding, % of control [42] of 0.15%. It also gave an inhibition [43] of 13%, a residual binding, % of control [44] of 0.15% and a residual binding, % of control [45] of 88%.

With `CCN1CCN(Cc2ccc(NC(=O)c3ccc(C)c(C#Cc4cccnc4)c3)cc2C(F)(F)F)CC1` the residual binding, % of control [1] was 0%, the residual binding, % of control [2] was 100% and the EC50 [3] was 1.59 µM. For the same molecule, the inhibition [4] was 16%, the residual binding, % of control [5] was 0% and the level, % of control [6] was 23%. It also gave an inhibition [7] of 87%, a residual binding, % of control [8] of 0% and an inhibition [9] of 1.6%. The residual binding, % of control [10] was 100%, the residual binding, % of control [11] was 85% and the residual binding, % of control [12] was 1.6%. For the same molecule, the residual binding, % of control [13] was 0.7%, the residual binding, % of control [14] was 2.8% and the residual binding, % of control [15] was 5.2%. The inhibition [16] was 0.15%, the level, % of control [17] was 0.95% and the inhibition [18] was 34%. It also gave a residual binding, % of control [19] of 100%, a residual binding, % of control [20] of 0% and a residual binding, % of control [21] of 0.5%. For the same molecule, the residual binding, % of control [22] was 100%, the residual binding, % of control [23] was 100% and the residual binding, % of control [24] was 77%. For the same molecule, the inhibition [25] was 17%, the residual binding, % of control [26] was 11% and the inhibition [27] was 4.8%. It also gave a residual binding, % of control [28] of 100%, a residual binding, % of control [29] of 3.4% and an inhibition [30] of 100%. The residual binding, % of control [31] was 1.2%, the % of control [32] was 0.2% and the residual binding, % of control [33] was 0.4%. It also gave a residual binding, % of control [34] of 0.5%, a residual binding, % of control [35] of 79% and an inhibition [36] of 41%. It also gave an inhibition [37] of 76%, a residual binding, % of control [38] of 96% and a residual binding, % of control [39] of 59%. It also gave a level, % of control [40] of 24%, an inhibition [41] of 97% and a residual binding, % of control [42] of 0.4%. For the same molecule, the inhibition [43] was 8.2%, the residual binding, % of control [44] was 0% and the residual binding, % of control [45] was 100%.
